In patent US10947234B2, “PRMT5 inhibitors” (Merck Sharp & Dohme Corp., priority 2017, dated 2021):
Read-outs that look alike come from different tables or passages of the source.

How the values were obtained:
[1] = molecular target: Full-length (FL)-PRMT5-MEP50 enzyme complex (Homo sapiens (Human), UniProt O14744); assay: PRMT5-MEP50 Enzyme Methylation Assay; assay type: biochemical; settings: biotinylated H4R3(Me1) peptide, 15 μM SAM, top compound concentration 100000 nM
Method: PRMT5-MEP50 Enzyme Methylation Assay
PRMT5/MEP50 biochemical assay is a direct measurement of the methylation activity of the enzyme complex on a short peptide substrate derived from the N-terminus of H4 histone. Methylation experiment is performed with recombinant protein. The assessment of inhibitory effect (IC50) of small molecules is measured by the effectiveness of the compounds to inhibit this reaction.
To each well of a white ProxiPlus 384 well-plate, 100 nL of compound (1% DMSO in final assay volume of 10 μL) was dispensed, followed by the addition of 8 μL of 1× assay buffer (50 mM Bicine pH 8.0, 1 mM DTT, 0.004% Tween20, 0.01% BSA) containing 0.5 nM of Full-length (FL)-PRMT5-MEP50 enzyme complex (recombinant proteins from baculovirus-transfected Sf21 cells: FL-PRMT5; MW=[…] and FL-MEP50; MW=38614). Plates were sealed and placed in a 37° C. humidified chamber for 30 minutes pre-incubation with compounds. Subsequently, each reaction was initiated by the addition of 2 μL 1× assay buffer containing 75 nM biotinylated H4R3(Me1) peptide, and 15 μM S-(5′-Adenosyl)-L-Methionine Chloride (SAM). The final reaction in each well of 10 μL consists of 0.5 nM PRMT5-MEP50, 75 nM biotinylated-peptide, and 15 μM. Methylation reactions were allowed to proceed for 150 minutes in a sealed plate at 37° C. Reactions were immediately quenched by the addition of 1 μL of 10% formic acid. Plates were then frozen and shipped to SAMDI™ Tech Inc. to determine the percent conversion from […]. IC50 values were determined by 7 parameters biphasic fit model plotting the percent product conversion vs. (Log10) compound concentrations.

PRMT5 = PRMT5 (Homo sapiens (Human), UniProt O14744); assay: PRMT5 Cell Target Engagement (TE) Assay; assay type: cell-based; settings: MCF-7 cells, 3 days treatment, nuclear SDMA by high content imaging; top compound concentration 10000 nM
Source text: PRMT5 Cell Target Engagement (TE) Assay
The PRMT5 TE assay is a biomarker assay for identifying compounds that inhibit symmetric dimethylation of arginine (SDMA) of PRMT5 substrates. This assay detects symmetrically dimethylated nuclear proteins using high content imaging technology. Detection of the expression of symmetrically dimethylated nucleo proteins is through a mixture of primary rabbit monoclonal antibodies to SDMA (CST 13222), which in turn recognized by an Alexafluor 488 dye-conjugated anti-rabbit IgG secondary antibody. The IN Cell Analyzer 2200 measures nuclear Alexafluor 488 fluorescent dye intensity that is directly related to the level of expression of symmetrically dimethylated nuclear proteins at the single cell level. Nuclear AF488 dye intensities are compared to the mean value for DMSO treated cells […] to report percent of inhibition for each compound-treated well.
Each well of a BD falcon collagen coated black/clear bottom 384-well plate was seeded with 4000 MCF-7 cells and allowed to attach for 5 hours. Media from cell plate was removed at 0.5 mm above the bottom of the plate and replaced with 30 μL of fresh media containing 1.2× compounds in 0.1% DMSO. Cells were treated for 3 days in 37° C. CO2 incubator. On day 3, cells were fixed with Cytofix, permeablized with 0.4% Triton-X-100/Cytofix, and washed with D-PBS without Ca/Mg. Cells were blocked with Licor Odessey blocking reagent for one hour at room temperature, followed by incubation with anti-SDMA (1:1000) antibody at 4° C. overnight. 1° antibody was removed, followed by three washings with DPBS without Ca/Mg and 0.05% Tween20. Hoechst (5 μg/ml), Cell Mask deep stain (1:2000) and Alexa488-conjugated goat anti-rabbit IgG (2 μg/mL) was added for 1 hour at room temperature. A final washing step (three washes) was performed before sealing plate for imaging on In Cell Analyzer 2200. Images from analyzer were uploaded to Columbus (at WP) for image analysis. IC50 values were determined by 4 parameters robust fit of percent fluorescence units vs. (Log10) compound concentrations.

[2] = first IC50 of 7 parameters biphasic fit, read-out: Enzyme Methylation Assay IC50_1
[3] = second IC50 of 7 parameters biphasic fit, read-out: Enzyme Methylation Assay IC50_2

Full-length (FL)-PRMT5-MEP50 enzyme complex, sequence (O14744 whole entry): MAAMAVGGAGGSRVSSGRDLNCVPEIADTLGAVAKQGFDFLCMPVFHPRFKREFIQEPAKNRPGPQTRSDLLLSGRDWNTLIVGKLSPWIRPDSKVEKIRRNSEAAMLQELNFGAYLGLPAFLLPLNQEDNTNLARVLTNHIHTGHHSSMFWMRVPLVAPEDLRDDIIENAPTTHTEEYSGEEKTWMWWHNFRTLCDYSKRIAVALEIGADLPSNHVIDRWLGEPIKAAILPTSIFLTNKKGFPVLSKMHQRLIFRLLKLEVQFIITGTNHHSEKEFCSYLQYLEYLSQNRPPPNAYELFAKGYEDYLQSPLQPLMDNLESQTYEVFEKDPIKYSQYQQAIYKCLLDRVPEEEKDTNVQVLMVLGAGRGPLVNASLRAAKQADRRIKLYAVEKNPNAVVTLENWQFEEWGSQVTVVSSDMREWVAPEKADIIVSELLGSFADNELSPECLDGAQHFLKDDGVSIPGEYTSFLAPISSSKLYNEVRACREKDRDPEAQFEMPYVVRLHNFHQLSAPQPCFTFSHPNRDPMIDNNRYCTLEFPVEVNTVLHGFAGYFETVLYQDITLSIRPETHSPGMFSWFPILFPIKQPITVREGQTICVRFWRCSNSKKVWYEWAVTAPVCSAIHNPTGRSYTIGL
Full-length (FL)-PRMT5-MEP50 enzyme complex, sequence (Q9BQA1 whole entry partner): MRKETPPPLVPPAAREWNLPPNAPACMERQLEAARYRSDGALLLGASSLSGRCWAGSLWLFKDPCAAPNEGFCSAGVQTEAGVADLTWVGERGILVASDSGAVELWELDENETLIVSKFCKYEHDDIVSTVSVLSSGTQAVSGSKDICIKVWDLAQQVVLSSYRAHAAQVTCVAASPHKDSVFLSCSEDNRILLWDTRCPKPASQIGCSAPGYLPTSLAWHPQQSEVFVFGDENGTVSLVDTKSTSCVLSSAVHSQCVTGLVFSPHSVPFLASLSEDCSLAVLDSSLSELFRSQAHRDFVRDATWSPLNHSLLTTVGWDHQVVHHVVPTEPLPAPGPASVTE
PRMT5, sequence (O14744 whole entry): as the sequence (O14744 whole entry) above
PRMT5, sequence (Q9BQA1 whole entry partner): as the sequence (Q9BQA1 whole entry partner) above

SMILES | IC50 [1, 2] | IC50 [1, 3] | EC50 (PRMT5)
CC[C@H]1CN(C[C@@H](O)[C@@H]2Cc3ccccc3CN2)C(=O)c2cc(Cl)ncc21 (single isomer, unassigned) [Example 1] | 5.19 µM | ≥ 100 µM | ≥ 10 µM
CC[C@H]1CN(C[C@@H](O)[C@@H]2Cc3ccccc3CN2)C(=O)c2cc(Cl)ncc21 (single isomer, unassigned) [Example 2] | 3.83 µM | ≥ 100 µM | ≥ 10 µM
CC[C@H]1CN(C[C@@H](O)[C@@H]2Cc3ccccc3CN2)C(=O)c2cc(Cl)ncc21 (single isomer, unassigned) [Example 3] | 28.3 µM | ≥ 100 µM | ≥ 10 µM
CC[C@H]1CN(C[C@@H](O)[C@@H]2Cc3ccccc3CN2)C(=O)c2cc(Cl)ncc21 (single isomer, unassigned) [Example 4] | 42.9 µM | ≥ 100 µM | ≥ 10 µM
CC[C@H]1CN(C[C@@H](O)[C@@H]2Cc3ccccc3CN2)C(=O)c2cc(NC3CCN(C(C)=O)CC3)ncc21 (single isomer, unassigned) [Example 7] | 0.00715 µM | 4.99 µM | 0.682 µM
CC[C@H]1CN(C[C@@H](O)[C@@H]2Cc3ccccc3CN2)C(=O)c2cc(NC3CCN(C(C)=O)CC3)ncc21 (single isomer, unassigned) [Example 8] | 0.0968 µM | 29.1 µM | 3.24 µM
CC[C@H]1CN(C[C@@H](O)[C@@H]2Cc3ccccc3CN2)C(=O)c2cc(NC3CCN(C(C)=O)CC3)ncc21 (single isomer, unassigned) [Example 9] | 0.00108 µM | 1.18 µM | 0.103 µM
CC[C@H]1CN(C[C@@H](O)[C@@H]2Cc3ccccc3CN2)C(=O)c2cc(NC3CCN(C(C)=O)CC3)ncc21 (single isomer, unassigned) [Example 10] | 0.272 µM | 64.5 µM | ≥ 10 µM
CC(=O)N1CCC(Nc2cc3c(cn2)C(C)(C)CN(C[C@@H](O)[C@@H]2Cc4ccccc4CN2)C3=O)CC1 (single isomer, unassigned) [Example 11] | 0.0569 µM | 9.23 µM | 3.89 µM
CC(=O)N1CCC(Nc2cc3c(cn2)C(C)(C)CN(C[C@@H](O)[C@@H]2Cc4ccccc4CN2)C3=O)CC1 (single isomer, unassigned) [Example 12] | 0.00153 µM | 0.631 µM | 0.102 µM
